Measurements: publication PMC12435400, “Thymidine Phosphorylase Inhibitory Potential and Molecular Docking Studies of Secondary Metabolites Isolated From Fernandoa adenophylla (Wall. ex G. Don) Steenis” (Chemistry & Biodiversity, 2025)
Read-outs that look alike come from different tables or passages of the source.

Tests used:
[1] = molecular target: T1, thymidine phosphorylase (EcTP) (Escherichia coli, UniProt P07650); experiment: biochemical
T1 construct: purchased
Experimental: Mechanism‐based studies were carried out on the selected compounds, that is, 1, 2, and 5.
(§1) In this study, we utilized commercially available recombinant EcTP enzyme as a model for TP inhibition assessment due to its structural similarities with mammalian TP enzymes. Spectrophotometric TP inhibition assays were conducted by incubating 0.058 U of EcTP enzyme with 500 µM of test compounds at 30°C for 10 min. Subsequently, 1.5 mM of thymidine substrate was added, and absorbance changes were monitored for 10 min at 290 nm using a microplate reader. […] Mechanistic studies involved incubating the TP enzyme with varying inhibitor concentrations and substrate concentrations ranging from 0.1875 to 1.5 µM. Enzyme activity was assessed by measuring absorbance changes for an additional 10 min. Triplicate experiments were conducted for mechanistic investigations to ensure the results' robustness.
Chemical reactions were examined using kinetic studies to determine their rates, mode of inhibition, and the variables influencing these characteristics. The kind and mechanism of inhibition of derivatives are ascertained here. Test compounds (0.5–500 µM) were incubated with TP (0.058 U/200 µL) for 10 min at 30°C in mechanistic studies. The addition of various thymidine concentrations (varying from 0.1875 to 1.5 µM) then started the process. Thymidine cleavage was tracked at 290 nm for ten min straight using an ELISA plate reader (SpectraMax 384; Molecular Devices, San Jose, CA, USA).

[2] = molecular target: T2, recombinant EcTP enzyme (thymidine phosphorylase) (Escherichia coli, UniProt P07650); experiment: biochemical
T2 construct: purchased
T2 sequence (P07650 whole entry): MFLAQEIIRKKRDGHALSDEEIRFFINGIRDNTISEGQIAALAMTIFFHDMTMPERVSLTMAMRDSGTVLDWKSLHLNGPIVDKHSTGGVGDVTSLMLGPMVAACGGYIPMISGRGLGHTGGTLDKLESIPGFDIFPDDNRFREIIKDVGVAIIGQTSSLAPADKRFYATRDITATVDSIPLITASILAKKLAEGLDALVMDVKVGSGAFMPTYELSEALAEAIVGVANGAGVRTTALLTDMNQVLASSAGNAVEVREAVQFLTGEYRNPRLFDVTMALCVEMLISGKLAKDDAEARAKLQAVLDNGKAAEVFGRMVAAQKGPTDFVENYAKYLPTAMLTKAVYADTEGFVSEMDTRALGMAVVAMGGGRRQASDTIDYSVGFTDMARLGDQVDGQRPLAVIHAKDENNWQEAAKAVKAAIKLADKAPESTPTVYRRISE
Experimental: as §1

[3] = dissociation constant from secondary replot of Lineweaver-Burk and Dixon plots, unit printed in text b13 only, read-out: Ki ± SEM
[4] = thymidine as variable substrate
[5] = 500 µM test compound, 0.058 U EcTP, 1.5 mM thymidine, 30°C, read-out: % Inhibition
[6] = EcTP, thymidine substrate, absorbance at 290 nm, triplicate, read-out: IC50 ± SEM

T1 sequence (P07650 whole entry): as above

With `O=c1[nH]c(=O)c2cc[nH]c2[nH]1` [7‐Deazaxanthine, reference compound] the “Type of Inhibitor” value [1] was “Non‐competitive” and the inhibition at 500 µM [2] was 80.6%.

`CC1(C)CCC2=C(O1)C(=O)c1ccccc1C2=O` [Alpha‐lapachone (2), Alpha‐lapachone] was tested, and the Ki [1, 3] was 4.9 ± 0.008 µM, the “Type of Inhibitor” value [1, 4] was “Non‐competitive” and the inhibition at 500 µM [2, 5] was 88.3%. It also gave an IC50 [2, 6] of 3.6 ± 0.9 µM.

In the case of `CC1(C)C=CC2=C(O1)C(=O)c1ccccc1C2=O` [Dehydro‐α‐lapachone (4), Dehydro‐α‐lapachone], the inhibition at 500 µM [2, 5] is reported as 82.6% and the IC50 [2, 6] is reported as 17.2 ± 1 µM.

In the case of `COC(=O)C1(O)c2ccccc2C(=O)C1(O)CC=C(C)C` (stereo not drawn) [Indanone derivative (5), Methyl‐1,2‐dihydroxy‐2‐(3‐methylbut‐2‐en‐1‐yl)‐3‐oxo‐2,3‐dihydro‐1H‐indene‐1carboxylate], the Ki [1] is reported as 7.1 ± 0.009 µM, the “Type of Inhibitor” value [1, 4] is reported as “Non‐competitive” and the IC50 [2] is reported as 1.8 ± 0.5 µM. For the same compound, the inhibition at 500 µM [2] was 91.3%.

With `CC(C)=CCC1=C(O)C(=O)c2ccccc2C1=O` [Lapachol (1), Lapachol] the Ki [1, 3] was 4.6 ± 0.006 µM, the “Type of Inhibitor” value [1, 4] was “Non‐competitive” and the inhibition at 500 µM [2, 5] was 86.2%. The IC50 [2, 6] was 2.3 ± 0.1 µM.

With `CC(C)=C(C)[C@H]1C[C@]2(C)OC3=C(C(=O)c4ccccc4C3=O)[C@H]3[C@@H]2[C@@]12C(=O)c1ccccc1[C@@]3(O)C2=O` [Peshawaraquinone (3), Peshawaraquinone] the inhibition at 500 µM [2, 5] was 87.1% and the IC50 [2, 6] was 4.9 ± 0.8 µM.
